Data published in US8653110B2, “Active compound combination comprising azadirachtin and a substituted enaminocarbonyl compound” (Bayer CropScience AG, priority 2010, dated 2014).

Tests used:
Assay type in all cases: in vivo
[1] = tested on: Trialeurodes vaporariorum; assay: Whiteflies on tomatoes (Example 5)
Protocol: Example 5 describes the effect of the combination according to the invention against whiteflies (Trialeurodes vaporariorum) on tomatoes (Lycopersicon esculentum). The test was carried out under GEP according to EPPO guideline PP 1/36(2) with 3 repetitions of in each case 4 plants. At the start of the infection, the plants were treated as follows: • 1. untreated • 2. compound (I-1) as SL 200 (compound according to formula (I-1), 17% strength), 50 g of active compound/ha • 3. azadirachtin 30 g of active compound/ha, NeemAzal® • 4. azadirachtin 15 g of active compound/ha, NeemAzal® • 5. azadirachtin 5 g of active compound/ha, NeemAzal® • 6. compound (I-1) as SL 200+azadirachtin, 50+30 g of active compound/ha • 7. compound (I-1) as SL 200+azadirachtin, 50+15 g of active compound/ha • 8. compound (I-1) as SL 200+azadirachtin, 50+5 g of active compound/ha • 9. positive control imidacloprid 100 g of active compound/ha
(§1) The spray solution was prepared by mixing commercial formulations and using water to adjust to the concentration mentioned. The application rate was 1000 l/ha. 2 applications were carried out at intervals of 14 days. The number of adult flies and the number of larvae were scored on days 2 to 21 after the first application. What is shown is the effect of the products, which becomes evident in a reduction of the number of insects or larvae compared to the untreated control. Imidacloprid was also tested, as positive control.

[2] = tested on: Spodoptera exigua; assay: Spodoptera exigua caterpillars on carnations, feeding damage (Example 1); details: for Day 7 reduction of feeding damage in %: Day 7, (I-1) 150, azadirachtin 30, (I-1)+azadirachtin 150+30, imidacloprid 100 g of active compound/ha; for Day 32 reduction of feeding damage in %: Day 32, (I-1) 150, azadirachtin 30, (I-1)+azadirachtin 150+30, imidacloprid 100 g of active compound/ha; for Day 40 reduction of feeding damage in %: Day 40, (I-1) 150, azadirachtin 30, (I-1)+azadirachtin 150+30, imidacloprid 100 g of active compound/ha
Protocol: Example 1 describes the effect of the combination according to the invention on caterpillars of the owlet moth (Spodoptera exigua) on carnations (Dianthus caryophyllus). Azadirachtin was employed as NeemAzal® from Trifolio GmbH. The test was carried out according to EPPO guidelines PP 1/152 (2), PP 1/181 (3), PP 1/135 (3) and PP 1/210 (1) with 4 repetitions of in each case 10 plants. At the start of the infection, the plants were treated as follows: • 1. untreated • 2. compound (I-1) as SL 200 (17% strength), 150 g of active compound/ha • 3. azadirachtin 30 g of active compound/ha • 4. compound (I-1) as SL 200+azadirachtin, 150+30 g of active compound/ha • 5. positive control: imidacloprid 100 g of active compound/ha
The spray solution was prepared by mixing commercial formulations and using water to adjust to the concentration mentioned. The application rate was 1000 l/ha. 3 Applications were carried out at intervals of 10-14 days. The feeding damage caused by the caterpillars on the carnation leaves was scored at weekly intervals.

[3] = tested on: Tetranychus urticae; assay: Greenhouse red spider mite on roses (Example 7)
Protocol: Example 7 describes the effect of the combination according to the invention on the greenhouse red spider mite (Tetranychus urticae) on roses. The test was carried out in a greenhouse under GEP according to EPPO guideline PP 1/168(2) with 4 repetitions of in each case 4 plants. At the start of the infection, the plants were treated as follows: • 1. untreated • 2. compound (I-1) as SL 200 (compound according to formula (I-1), 17% strength), 50 g of active compound/ha • 3. azadirachtin 30 g of active compound/ha, NeemAzal® • 4. azadirachtin 5 g of active compound/ha, NeemAzal® • 5. compound (I-1) as SL 200+azadirachtin, 50+30 g of active compound/ha • 6. compound (I-1) as SL 200+azadirachtin, 50+5 g of active compound/ha • 7. positive control imidacloprid 100 g of active compound/ha
The spray solution was prepared by mixing commercial formulations and using water to adjust to the concentration mentioned. The application rate was 1000 l/ha. 2 applications were carried out at intervals of 14 days. The number of spider mites on days 2 to 32 after the first application was scored. What is shown is the effect of the products, which becomes evident in a reduction of the number of spider mites compared to the untreated control.

[4] = tested on: Trialeurodes vaporariorum; assay: Whiteflies on tomatoes, further test (Example 6)
Protocol: This example describes a further test with the formulation according to the invention against whiteflies (Trialeurodes vaporariorum) on tomatoes (Lycopersicon esculentum). The test was carried out under GEP according to EPPO guideline PP 1/36(2) with 4 repetitions of in each case 5 plants. At the start of the infection, the plants were treated as follows: • 1. untreated • 2. compound (I-1) as SL 200 (compound according to formula (I-1), 17% strength), 50 g of active compound/ha • 3. azadirachtin 15 g of active compound/ha, NeemAzal® • 4. azadirachtin 5 g of active compound/ha, NeemAzal® 5. compound (I-1) as SL 200+azadirachtin, 50+15 g of active compound/ha • 6. compound (I-1) as SL 200+azadirachtin, 50+5 g of active compound/ha • 7. positive control imidacloprid 100 g of active compound/ha
as §1, with “10” for “14”, “32” for “21”

[5] = Day 2, (I-1) 50, azadirachtin 30, (I-1)+azadirachtin 50+30, imidacloprid 100 g/ha
[6] = Day 2, azadirachtin 5, (I-1)+azadirachtin 50+5 g/ha
[7] = Day 2, azadirachtin 15, (I-1)+azadirachtin 50+15 g/ha
[8] = Day 7, (I-1) 50, azadirachtin 30, (I-1)+azadirachtin 50+30, imidacloprid 100 g/ha
[9] = Day 7, azadirachtin 5, (I-1)+azadirachtin 50+5 g/ha
[10] = Day 7, azadirachtin 15, (I-1)+azadirachtin 50+15 g/ha
[11] = Day 14, (I-1) 50, azadirachtin 30, (I-1)+azadirachtin 50+30, imidacloprid 100 g/ha
[12] = Day 14, azadirachtin 5, (I-1)+azadirachtin 50+5 g/ha
[13] = Day 14, azadirachtin 15, (I-1)+azadirachtin 50+15 g/ha
[14] = Day 21, (I-1) 50, azadirachtin 30, (I-1)+azadirachtin 50+30, imidacloprid 100 g/ha
[15] = Day 21, azadirachtin 5, (I-1)+azadirachtin 50+5 g/ha
[16] = Day 21, azadirachtin 15, (I-1)+azadirachtin 50+15 g/ha
[17] = Days 28-32, (I-1) 50, azadirachtin 30, (I-1)+azadirachtin 50+30, imidacloprid 100 g/ha
[18] = Days 28-32, azadirachtin 5, (I-1)+azadirachtin 50+5 g/ha
[19] = Day 2, (I-1) 50, azadirachtin 15, (I-1)+azadirachtin 50+15, imidacloprid 100 g/ha
[20] = Day 7, (I-1) 50, azadirachtin 15, (I-1)+azadirachtin 50+15, imidacloprid 100 g/ha
[21] = Day 14, (I-1) 50, azadirachtin 15, (I-1)+azadirachtin 50+15, imidacloprid 100 g/ha
[22] = Day 21, (I-1) 50, azadirachtin 15, (I-1)+azadirachtin 50+15, imidacloprid 100 g/ha
[23] = Days 28-32, (I-1) 50, azadirachtin 15, (I-1)+azadirachtin 50+15, imidacloprid 100 g/ha

C/C=C(\C)C(=O)O[C@H]1C[C@@H](OC(C)=O)[C@@]2(C(=O)OC)CO[C@H]3[C@@H](O)[C@@](C)([C@]45O[C@@]4(C)[C@H]4C[C@@H]5O[C@@H]5OC=C[C@@]54O)[C@H]4[C@]1(CO[C@]4(O)C(=O)OC)[C@@H]32 [azadirachtin]
Activity against adults [%] [1, 5]: 45% | Activity against larvae [%] [1, 5]: 0% | Activity against adults [%] [1, 6]: 23% | Activity against larvae [%] [1, 6]: 0% | Activity against adults [%] [1, 7]: 47% | Activity against larvae [%] [1, 7]: 0% | Activity against adults [%] [1, 8]: 47% | Activity against larvae [%] [1, 8]: 2% | Activity against adults [%] [1, 9]: 7% | Activity against larvae [%] [1, 9]: 24% | Activity against adults [%] [1, 10]: 54% | Activity against larvae [%] [1, 10]: 13% | Activity against adults [%] [1, 11]: 32% | Activity against larvae [%] [1, 11]: 13% | Activity against adults [%] [1, 12]: 0% | Activity against larvae [%] [1, 12]: 12% | Activity against adults [%] [1, 13]: 49% | Activity against larvae [%] [1, 13]: 37% | Activity against adults [%] [1, 14]: 56% | Activity against larvae [%] [1, 14]: 0% | Activity against adults [%] [1, 15]: 16% | Activity against larvae [%] [1, 15]: 0% | Activity against adults [%] [1, 16]: 80% | Activity against larvae [%] [1, 16]: 0% | Day 7 reduction of feeding damage in % [2]: 0% | Day 32 reduction of feeding damage in % [2]: 92% | Day 40 reduction of feeding damage in % [2]: 100% | Activity against Tetranychus urticae [%] [3, 5]: 21% | Activity against Tetranychus urticae [%] [3, 6]: 30% | Activity against Tetranychus urticae [%] [3, 8]: 16% | Activity against Tetranychus urticae [%] [3, 9]: 0% | Activity against Tetranychus urticae [%] [3, 11]: 20% | Activity against Tetranychus urticae [%] [3, 12]: 10% | Activity against Tetranychus urticae [%] [3, 14]: 7% | Activity against Tetranychus urticae [%] [3, 15]: 19% | Activity against Tetranychus urticae [%] [3, 17]: 0% | Activity against Tetranychus urticae [%] [3, 18]: 6% | Activity against adults [%] [4, 19]: 57% | Activity against larvae [%] [4, 19]: 0% | Activity against adults [%] [4, 6]: 41% | Activity against larvae [%] [4, 6]: 0% | Activity against adults [%] [4, 20]: 64% | Activity against larvae [%] [4, 20]: 0% | Activity against adults [%] [4, 9]: 41% | Activity against larvae [%] [4, 9]: 0% | Activity against adults [%] [4, 21]: 65% | Activity against larvae [%] [4, 21]: 20% | Activity against adults [%] [4, 12]: 40% | Activity against larvae [%] [4, 12]: 0% | Activity against adults [%] [4, 22]: 76% | Activity against larvae [%] [4, 22]: 32% | Activity against adults [%] [4, 15]: 47% | Activity against larvae [%] [4, 15]: 0% | Activity against adults [%] [4, 23]: 76% | Activity against larvae [%] [4, 23]: 37% | Activity against adults [%] [4, 18]: 40% | Activity against larvae [%] [4, 18]: 0%

O=C1C=C(N(Cc2ccc(Cl)nc2)CC(F)F)CO1 [(I-1), 4-{[(6-chloropyrid-3-yl)methyl](2,2-difluoroethyl)amino}furan-2(5H)-one]
Activity against adults [%] [1, 5]: 73% | Activity against larvae [%] [1, 5]: 0% | Activity against adults [%] [1, 8]: 75% | Activity against larvae [%] [1, 8]: 18% | Activity against adults [%] [1, 11]: 22% | Activity against larvae [%] [1, 11]: 0% | Activity against adults [%] [1, 14]: 57% | Activity against larvae [%] [1, 14]: 14% | Day 7 reduction of feeding damage in % [2]: 0% | Day 32 reduction of feeding damage in % [2]: 49% | Day 40 reduction of feeding damage in % [2]: 88% | Activity against Tetranychus urticae [%] [3, 5]: 28% | Activity against Tetranychus urticae [%] [3, 8]: 15% | Activity against Tetranychus urticae [%] [3, 11]: 43% | Activity against Tetranychus urticae [%] [3, 14]: 12% | Activity against Tetranychus urticae [%] [3, 17]: 15% | Activity against adults [%] [4, 19]: 86% | Activity against larvae [%] [4, 19]: 0% | Activity against adults [%] [4, 20]: 88% | Activity against larvae [%] [4, 20]: 0% | Activity against adults [%] [4, 21]: 93% | Activity against larvae [%] [4, 21]: 18% | Activity against adults [%] [4, 22]: 96% | Activity against larvae [%] [4, 22]: 4% | Activity against adults [%] [4, 23]: 67% | Activity against larvae [%] [4, 23]: 68%

O=[N+]([O-])NC1=NCCN1Cc1ccc(Cl)nc1 [imidacloprid]
Activity against adults [%] [1, 5]: 51% | Activity against larvae [%] [1, 5]: 0% | Activity against adults [%] [1, 8]: 89% | Activity against larvae [%] [1, 8]: 60% | Activity against adults [%] [1, 11]: 68% | Activity against larvae [%] [1, 11]: 50% | Activity against adults [%] [1, 14]: 65% | Activity against larvae [%] [1, 14]: 52% | Day 7 reduction of feeding damage in % [2]: 0% | Day 25 reduction of feeding damage in % ([2]; Day 25, (I-1) 150, azadirachtin 30, (I-1)+azadirachtin 150+30, imidacloprid 100 g of active compound/ha): 100% | Day 32 reduction of feeding damage in % [2]: 97% | Day 40 reduction of feeding damage in % [2]: 100% | Activity against Tetranychus urticae [%] [3, 5]: 20% | Activity against Tetranychus urticae [%] [3, 8]: 16% | Activity against Tetranychus urticae [%] [3, 11]: 11% | Activity against Tetranychus urticae [%] [3, 14]: 27% | Activity against Tetranychus urticae [%] [3, 17]: 46% | Activity against adults [%] [4, 19]: 91% | Activity against larvae [%] [4, 19]: 0% | Activity against adults [%] [4, 20]: 96% | Activity against larvae [%] [4, 20]: 57% | Activity against adults [%] [4, 21]: 98% | Activity against larvae [%] [4, 21]: 70% | Activity against adults [%] [4, 22]: 99% | Activity against larvae [%] [4, 22]: 68% | Activity against adults [%] [4, 23]: 91% | Activity against larvae [%] [4, 23]: 94%
